Measured values taken from ChEMBL document CHEMBL2169859, “Modulation of tau protein fibrillization by oleocanthal” (J Nat Prod, 2012).
Active and inactive are the calls of the source.

Tests used:
Homo sapiens [1] = organism: Homo sapiens; assay: Binding affinity to human recombinant Tau 2N4R expressed in Escherichia coli assessed as change in protein conformation at 10 mM measured for 60 mins by H/D exchange mass spectrometric analysis
Homo sapiens [2] = organism: Homo sapiens; assay: Inhibition of arachidonic acid-induced human recombinant Tau 2N4R fibrillation expressed in Escherichia coli assessed as alpha helix formation at 125 uM preincubated for 1 hr prior to arachidonic acid challenge measured 28 hrs post arachidonic challenge by CD spectroscopic analysis
Homo sapiens [3] = organism: Homo sapiens; assay: Inhibition of arachidonic acid-induced human recombinant Tau 2N4R fibrillation expressed in Escherichia coli preincubated for 1 hr prior to arachidonic acid challenge measured 6 hrs post arachidonic challenge by Thioflavin-S fluorescence assay
Homo sapiens [4] = organism: Homo sapiens; assay: Inhibition of human recombinant Tau 2N4R fibrillation expressed in Escherichia coli assessed as alpha helix formation at 125 uM after 1 hr by CD spectroscopic analysis
Homo sapiens [5] = organism: Homo sapiens; assay: Binding affinity to human recombinant Tau 2N4R expressed in Escherichia coli at 0.1 to 25 uM by SPR analysis

C/C=C(/C=O)[C@@H](CC=O)CC(=O)OCCc1ccc(O)cc1
active: Activity (Homo sapiens [1]) | inhibition (Homo sapiens [2]) | inhibition (Homo sapiens [3]) Dose-dependent effect | inhibition (Homo sapiens [4]) | Activity (Homo sapiens [5])
